Where “and” joins values, the source holds several entries; their conditions need not be identical. Identical values can stand only once.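 Where inhibition never reached the appropriate level, the endpoint shown equals the highest concentration tested. Otherwise, values were interpolated linearly from a five-concentration, 48-hour dose response in 96-well plates. Here, GI50 denotes the concentration required for 50% inhibition of growth. TGI: concentration producing complete growth inhibition.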
What was measured:
Assay in all cases: NCI-60 cell line screen, 48 h
CCRF-CEM leukemia = tested on: CCRF-CEM leukemia
IGROV1 ovarian = tested on: IGROV1 ovarian
MDA-MB-231 breast = tested on: MDA-MB-231 breast
NCI-H460 lung = tested on: NCI-H460 lung
NCI-H522 lung = tested on: NCI-H522 lung
SN12C renal = tested on: SN12C renal
TK-10 renal = tested on: TK-10 renal
OVCAR-4 ovarian = tested on: OVCAR-4 ovarian
SK-MEL-28 melanoma = tested on: SK-MEL-28 melanoma

Structure (SMILES)	GI50 (CCRF-CEM leukemia) [µM]	TGI (CCRF-CEM leukemia)	GI50 (IGROV1 ovarian) [µM]	TGI (IGROV1 ovarian)	GI50 (MDA-MB-231 breast)	TGI (MDA-MB-231 breast)	GI50 (NCI-H460 lung) [µM]	TGI (NCI-H460 lung)	GI50 (NCI-H522 lung) [µM]	TGI (NCI-H522 lung) [µM]	GI50 (SN12C renal)	TGI (SN12C renal)	GI50 (TK-10 renal) [µM]	TGI (TK-10 renal)	GI50 (OVCAR-4 ovarian) [µM]	TGI (OVCAR-4 ovarian) [µM]	GI50 (SK-MEL-28 melanoma) [µM]	TGI (SK-MEL-28 melanoma) [µM]
Cc1cc(-c2cnn3c(NCC4CC(C)(O)C4)cc(Oc4cccnc4)nc23)ccc1C(=O)NC1CC1 (stereo unspecified)	0.259	> 100 µM	0.992	> 100 µM	3.39 µM	> 100 µM	0.585	> 100 µM	5.08	> 100	2.96 µM	> 100 µM	1.98	> 100 µM	–	–	–	–
Nc1nccc(-c2c(-c3ccc(F)cc3)ncn2C2CCC(O)CC2)n1 (stereo unspecified)	13.4	> 25 µM	4.32	24.8 µM	14.5 µM	> 25 µM	4.95	> 25 µM	5.49	> 23.1	6.72 µM	> 25 µM	3.72	24.4 µM	2.92	> 25	14.8	> 25
CC1CN1C(=O)NCCCCCCNC(=O)N1CC1C (stereo unspecified)	–	> 93 µM	–	> 100 µM	–	> 100 µM	–	> 66.6 µM	–	> 100	–	> 100 µM	–	> 100 µM	–	> 100	–	> 100
N#CSC1CCCCNC1=O (stereo unspecified)	–	34.8 µM	–	–	–	33 µM	–	28.7 µM	–	21.3	–	30.8 µM	–	30.7 µM	–	–	–	28.1
CC/C=C\C[C@H](F)C/C=C1/C(=O)C=C[C@@H]1C/C=C\CCCC(=O)O	1.05	11.1 µM	9.97	32.1 µM	12.7 µM	> 32.5 µM	9.35	30.9 µM	4.58	10.9	7.01 µM	20.5 µM	12.2	27.4 µM	7.76	> 32.5	4.98	11.4
O=C1Nc2ccccc2C1(c1ccc(O)cc1)c1ccc(O)cc1	32.7	99.8 µM	10.2	39.3 µM	20.3 µM	48.7 µM	18.5	37.9 µM	17.2	43.4	0.312 µM	50.6 µM	0.536	39.6 µM	0.103	0.961	26.9	65.7
CC1(C)OC2=C(CC1Br)C(=O)C(=O)c1ccccc12 (stereo unspecified)	3.56	> 100 µM	2.18	4.12 µM	2.35 µM	6.42 µM	2.08	3.96 µM	1.62	3.03	1.84 µM	3.75 µM	1.99	3.45 µM	1.67	3.03	1.82	3.24
Cc1ccc(C(=O)N(CCCN)C(c2oc3cc(Cl)ccc3c(=O)c2Cc2ccccc2)C(C)C)cc1 (stereo unspecified)	< 0.01	1.7 µM	–	2.72 µM	< 0.01 µM	–	< 0.01	1.15 µM	< 0.01	< 0.01	< 0.01 µM	2.07 µM	1.11	2.37 µM	0.899	2.47	1.07	2.5
Cc1ccc2c(c1)Sc1c(ccc3ccccc13)N2	12.4	> 100 µM	6.48	> 100 µM	42.1 µM	> 100 µM	5.37	> 100 µM	> 100	> 100	> 100 µM	> 100 µM	12.8	> 100 µM	> 100	> 100	> 100	> 100
CS(=O)(=O)c1ccc(-n2nc(C(F)(F)F)cc2OC2CCCC2)cc1	38.3	> 100 µM	> 100	> 100 µM	26 µM	71.2 µM	27.8	> 100 µM	45.8	> 100	25.8 µM	71.7 µM	36.9	93.9 µM	30.3	> 100	> 100	> 100
Cc1cc(Cl)cc2c1NC(=O)C2(O)CC(=O)c1ccco1 (stereo unspecified)	–	57.3 µM	–	> 100 µM	–	> 100 µM	–	> 100 µM	–	> 100	–	> 100 µM	–	> 100 µM	–	23.9	–	> 100
Nc1nc(N(Cc2ccccc2)c2ccccc2)c2cn[nH]c2n1	4.32	> 100 µM	4.16	> 100 µM	6.41 µM	> 100 µM	4.39	> 100 µM	2.62	> 100	5.71 µM	> 100 µM	4.72	> 100 µM	6.37	> 100	16.9	> 100
O=c1cc(-c2ccccc2)oc2cc(OC/C(=N/O)c3ccccc3)ccc12	–	–	–	–	6.98 µM	23.9 µM	14.2	> 50 µM	9.61	> 50	10.9 µM	44.6 µM	7.18	19.9 µM	30.5	> 50	12.3	32.2
COc1cc2cc(Oc3ccc(NC(=O)Nc4ccc(Cl)c(C(F)(F)F)c4)cc3)c(C)nc2cc1OCCN1CCOCC1	1.45	> 100 µM	2.43	23.2 µM	2 µM	5.07 µM	1.65	3.62 µM	1.43	4.07	2.56 µM	56.2 µM	4.97	35.2 µM	0.582	3.41	1.55	3.12
O=C(CCc1nnc2sc(-c3ccc(Cl)cc3Cl)nn12)c1nc2ccccc2[nH]1	0.265	0.974 µM	0.953	6.35 µM	0.746 µM	2.21 µM	0.988	2.39 µM	0.755	2.18	1.41 µM	4.22 µM	1.29	2.77 µM	0.639	3.55	0.452	1.68
CCOC(=S)SSSC(=S)OCC	–	> 100 µM	–	–	–	> 100 µM	–	> 100 µM	–	–	–	70 µM	–	> 100 µM	–	–	–	> 100
CCCC(=O)OCC1OC(n2cnc3c(=S)nc[nH]c32)C(OC(=O)CCC)C1OC(=O)CCC (stereo unspecified)	1.79	17.4 µM	10.3	> 100 µM	5.71 µM	> 100 µM	8.13	> 100 µM	4.62	> 100	4.58 µM	> 100 µM	2.78	> 100 µM	0.802	> 100	77.5	> 100
C#CCNC(=O)c1cccc2c1cc(C)n2-c1nc2c(c(NCc3ccccc3)n1)CCCC2	0.235	0.945 µM	0.0276	0.102 µM	0.0216 µM	0.0546 µM	0.0233	0.0723 µM	0.0251	0.0808	0.0204 µM	0.0689 µM	0.0345	0.111 µM	0.022	0.0709	0.035	0.123

Structure (SMILES)	GI50 (CCRF-CEM leukemia) [µM]	TGI (CCRF-CEM leukemia)	GI50 (IGROV1 ovarian) [µM]	TGI (IGROV1 ovarian)	GI50 (MDA-MB-231 breast)	TGI (MDA-MB-231 breast)	GI50 (NCI-H460 lung) [µM]	TGI (NCI-H460 lung)	GI50 (NCI-H522 lung) [µM]	TGI (NCI-H522 lung) [µM]	GI50 (SN12C renal)	TGI (SN12C renal)	GI50 (TK-10 renal) [µM]	TGI (TK-10 renal)	GI50 (OVCAR-4 ovarian) [µM]	TGI (OVCAR-4 ovarian) [µM]	GI50 (SK-MEL-28 melanoma) [µM]	TGI (SK-MEL-28 melanoma) [µM]
COc1ccc2c(c1)C(=O)c1c-2n(CCCn2ccnc2)c(=O)c2cc([N+](=O)[O-])ccc12	–	–	< 0.01	25.2 µM	2.59 µM	> 100 µM	< 0.01	0.241 µM	< 0.0134	3.99	< 0.01 µM	> 100 µM	0.14	> 95.8 µM	–	> 100	–	> 100
CCCCCCCCn1ccc2cc(NC(=O)Cn3cc(CN4CCCC4)nn3)ccc21	2.9	> 100 µM	1.74	3.59 µM	1.84 µM	3.49 µM	1.82	3.51 µM	1.75	3.6	1.74 µM	3.29 µM	1.71	3.3 µM	4.97	18.1	–	–
COc1ccc2c(c1)[n+](=O)c(C(=O)C/C(=N/OCCCc1ccccc1)C(=O)NC13CC4CC(CC(C4)C1)C3)c(C)n2[O-]	–	> 100 µM	–	> 100 µM	–	–	–	> 100 µM	–	> 100	–	> 100 µM	–	> 100 µM	–	> 100	–	> 100
NC(=O)COC(=O)c1c(Cl)nc2sccn12	–	> 31.6 µM	–	> 100 µM	–	–	–	> 100 µM	–	> 100	–	> 100 µM	–	> 100 µM	–	> 100	–	> 100
N#C/C(=C\c1ccc2ccccc2c1)c1ccccc1	–	78.1 µM	–	37.3 µM	–	–	–	34 µM	–	29.6	–	> 100 µM	–	75.7 µM	–	69.1	–	> 100
NC(=O)NS(=O)(=O)c1ccc(N2N=C(C(F)(F)F)CC2c2cc(C(F)(F)F)cc(C(F)(F)F)c2)cc1 (stereo unspecified)	2.94	19.9 µM	–	–	10.2 µM	22.7 µM	3.47	11.7 µM	–	–	2.1 µM	4.51 µM	9.25	24.8 µM	2.9	12.8	4.39	16.7
O=C1C(Cl)=C(NCCN2CCOCC2)C(=O)c2ncccc21	2.34	2.68 µM and 5.29 µM	1.71	3.73 µM and 3.4 µM	–	5.02 µM and 3.77 µM	1.95	3.23 µM and 5.37 µM	–	–	1.93 µM	3.2 µM and 3.84 µM	16.5	3.44 µM and 30.3 µM	1.85	3.88	–	3.29
C/C(O)=C(\N=O)C(=O)Nc1ccc(Cl)cc1Cl	–	> 100 µM	–	> 100 µM	–	–	–	> 100 µM	–	> 100	–	> 100 µM	–	> 100 µM	–	> 100	–	> 100
COc1ccc(NC(=O)CC(=O)N/N=C/c2ccc(N(CCC#N)S(C)(=O)=O)cc2)cc1	–	> 100 µM	–	> 100 µM	–	–	–	> 100 µM	–	> 100	–	> 100 µM	–	> 100 µM	–	> 100	–	> 100
CCN(CC)CCCC(C)Nc1c2ccc(Cl)cc2nc2ccc(O)cc12 (stereo unspecified)	3.48	28.9 µM	–	–	2 µM	5.39 µM	1.38	3.84 µM	1.28	3.71	2.59 µM	16.6 µM	1.74	3.91 µM	1.88	4.66	1.6	2.98
COc1cc(C(=O)CBr)c(OC)cc1C	–	> 100 µM	–	> 100 µM	–	> 100 µM	–	–	–	> 100	–	> 100 µM	–	> 100 µM	–	–	–	> 100
CC(C)(CO)N1CCN(C(=S)Nc2ccccc2)CC1	–	–	–	> 100 µM	–	> 100 µM	–	> 100 µM	–	> 100	–	> 100 µM	–	> 100 µM	–	> 100	–	> 100
Cc1c(C(=O)C/C(=N/NC(=O)C[N+](C)(C)C)C(=O)Nc2ccc(Cl)cc2)[n+](=O)c2ccccc2n1O	–	> 100 µM	–	> 100 µM	–	–	–	> 100 µM	–	> 100	–	> 100 µM	–	> 100 µM	–	> 100	–	> 100
Cn1c2ccccc2c2ccc3c(c21)C(=O)c1ccccc1C3=O	–	13.1 µM	–	31.4 µM	–	64.2 µM	–	–	–	29.6	–	73.1 µM	–	39.1 µM	–	69.7	–	29.4
C[N+]1=C(/C=C/c2ccc(O)c3ncccc23)C(C)(C)c2ccccc21	3.1	26 µM	–	–	2.75 µM	11 µM	1.77	3.8 µM	2.83	11.6	2.82 µM	10.4 µM	3.43	14.9 µM	3.12	17.2	4.35	16.4
O=C(O)C(CS)Nc1c2ccccc2nc2ccccc12 (stereo unspecified)	–	> 100 µM	–	> 100 µM	–	–	–	> 100 µM	–	> 100	–	> 100 µM	–	> 100 µM	–	47.1	–	> 100
CC(=O)O[C@H]1C(=O)[C@@]2(C)C(C(OC(=O)c3ccccc3)[C@]3(O)CC(OC(=O)[C@H](OC(=O)CCC(=O)O)C(NC(=O)c4ccccc4)c4ccccc4)C(C)=C1C3(C)C)C1(OC(C)=O)COC1C[C@@H]2O (stereo partly specified)	–	0.658 µM and 1.57 µM	–	> 67.7 µM and 50 µM	< 0.0171 µM and 0.0486 µM	–	–	> 100 µM	–	< 0.01	< 0.01 µM and 0.0287 µM	> 100 µM	–	97.1 µM and 15.4 µM	–	> 100	–	–

From PubChem BioAssay (NCI)
